Molecules are shown by their SMILES. Like-named read-outs stand apart in the source and are kept apart here. Where a SMILES comes first, the peptide text is derived from it. [ ]: non-standard residue; d: D form. The star is where a group is joined. Phe(3,4-Cl2) = N[C@@H](Cc1ccc(Cl)c(Cl)c1)C(=O)O; pGlu = O=C1CC[C@@H](C(=O)O)N1; dNle = CCCC[C@@H](N)C(=O)O; dNva = CCC[C@@H](N)C(=O)O; Nle = CCCC[C@H](N)C(=O)O; Aib = CC(C)(N)C(=O)O; Bn = c1ccc(C*)cc1 A value given as a limit tells only on which side of the number the result lay.

One data set concerns the target T1, hAPJ (Homo sapiens, UniProt P35414).
T1 sequence (P35414 1-380): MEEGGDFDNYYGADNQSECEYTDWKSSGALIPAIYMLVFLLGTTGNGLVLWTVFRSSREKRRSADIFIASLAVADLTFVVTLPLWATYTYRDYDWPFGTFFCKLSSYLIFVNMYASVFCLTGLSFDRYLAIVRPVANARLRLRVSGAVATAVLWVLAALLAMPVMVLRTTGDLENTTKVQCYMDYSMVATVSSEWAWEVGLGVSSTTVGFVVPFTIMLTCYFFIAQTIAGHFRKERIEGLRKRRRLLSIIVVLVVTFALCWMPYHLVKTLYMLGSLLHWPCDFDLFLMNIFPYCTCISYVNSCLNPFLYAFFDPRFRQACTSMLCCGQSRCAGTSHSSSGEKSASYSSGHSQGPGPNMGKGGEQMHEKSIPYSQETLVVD
The data set can be described thus: hAPJ Calcium Flux Assay. In kind it is cell-based. As for the experimental part:
Chem-5 APJ stable cells (Millipore # HTS068C) were plated in 384-well format with 10,000 cells/well in 25 ul growth media, then grown 24 hours in a 37° C. tissue culture incubator. One hour before the assay, 25 ul/well FLIPR Calcium 4 dye (Molecular Devices R8142) with 2.5 mM probenecid was added, and cells were incubated one hour in a 37° C. tissue culture incubator. Peptides were solubilized in HBSS, HEPES & 0.1% BSA buffer, and serially-diluted 10-fold, from 50 uM to […], in triplicate. FLIPR Tetra was used to add peptide to the cells with dye (1:5, for final peptide concentrations ranging from 10 uM to […]). FLIPR dye inside the cells emitted fluorescence after binding to calcium, while fluorescence from outside the cells was masked. Fluorescence was measured using 470-495 excitation and 515-575 emission wavelengths on the FLIPR Tetra. Readings were done for 3 minutes total, beginning 10 seconds before the peptide addition. Maximum-minimum values were calculated and plotted for each peptide concentration, and GraphPad prism software was used to calculate EC50 values at the curve inflection points, for calcium flux stimulation by peptides.

Data set [1] can be described thus: Surrogate Activity-Based Plasma Stability Assay. The format is in vitro ADME. Particulars: rat. As to the method: Stability half-life was then calculated by the formula, t½=0.693÷k Surrogate Activity-Based Plasma Stability Assay: […]
2) Calculate slope of value above and […]

Where [2] appears, read: Chem-5 APJ stable cells, FLIPR calcium flux stimulation, read-out: hAPJ Ca^2+ Flux EC50.
Setting [3] is: Surrogate activity-based Plasma stability t½.

A word on the EC50: it is the concentration needed to bring the measured effect to its halfway point. As for `CCCC[C@@H](NC(=O)[C@@H]1CCCN1C(=O)CNC(=O)[C@H](CCCCN)NC(=O)[C@H](Cc1c[nH]cn1)NC(=O)[C@@H](C)NC(=O)[C@H](CC(C)C)NC(=O)[C@H](CCCNC(=N)N)NC(=O)[C@@H]1CCCN1C(=O)[C@H](CCCNC(=N)N)NC(=O)[C@@H]1CCC(=O)N1)C(=O)N[C@@H](Cc1ccccc1)C(=O)O` [Example 18, pE-R-P-R-L-a-H-K-G-P-nle-F-OH] ([pGlu]RPRL[dA]HKGP[dNle]F-OH), the EC50 at hAPJ (setting [2]) came to 66.5 nM. For the same molecule, the half-life in data set [1] (setting [3]) is 2.04 h.

As for `CCCC[C@@H](NC(=O)[C@@H]1CCCN1C(=O)CNC(=O)[C@H](CCCCN)NC(=O)[C@H](Cc1c[nH]cn1)NC(=O)[C@@H](C)NC(=O)[C@H](Cc1ccc(Cl)c(Cl)c1)NC(=O)[C@H](CCCNC(=N)N)NC(=O)[C@@H]1CCCN1C(=O)[C@H](CCCNC(=N)N)NC(=O)[C@@H]1CCC(=O)N1)C(=O)N[C@H](C)C(=O)N[C@H](Cc1ccccc1)C(=O)O` [Example 24, pE-R-P-R-(3,4-Cl2-F)-a-H-K-G-P-nle-a-f-OH] ([pGlu]RPR[Phe(3,4-Cl2)][dA]HKGP[dNle][dA][dF]-OH), the concentration for a half-maximal effect (EC50) on hAPJ (setting [2]) was 13.8 nM. In data set [1] (setting [3]), this molecule returned a half-life of 0.958 h.

Regarding `CCCC[C@@H](NC(=O)[C@@H]1CCCN1C(=O)CNC(=O)[C@H](CCCCN)NC(=O)C(C)(C)NC(=O)[C@H](CO)NC(=O)[C@H](CC(C)C)NC(=O)[C@H](CCCNC(=N)N)NC(=O)[C@@H]1CCCN1C(=O)[C@H](CCCNC(=N)N)NC(=O)[C@@H]1CCC(=O)N1)C(=O)N[C@H](C)C(=O)N[C@H](Cc1ccccc1)C(=O)O` [Example 40, pE-R-P-R-L-S-Aib-K-G-P-nle-a-f-OH] ([pGlu]RPRLS[Aib]KGP[dNle][dA][dF]-OH), at hAPJ (setting [2]), the concentration for a half-maximal effect (EC50) was 2 nM. In data set [1] (setting [3]), this molecule displayed a half-life above 16.7 h.

For `CCCC[C@@H](NC(=O)[C@@H]1CCCN1C(=O)CNC(=O)[C@H](CCCCN)NC(=O)[C@H](Cc1c[nH]cn1)NC(=O)[C@@H](CC)NC(=O)[C@H](CC(C)C)NC(=O)[C@H](CCCNC(=N)N)NC(=O)[C@@H]1CCCN1C(=O)[C@H](CCCNC(=N)N)NC(=O)[C@@H]1CCC(=O)N1)C(=O)N[C@H](C)C(=O)N[C@H](Cc1ccccc1)C(=O)O` [Example 44, pE-R-P-R-L-abu-H-K-G-P-nle-a-f-OH], on hAPJ (setting [2]), the 50% effective concentration (EC50) was found to be 3 nM. The half-life in data set [1] (setting [3]) worked out at 9.25 h.

As to `CCCC[C@@H](NC(=O)[C@@H]1CCCN1C(=O)CNC(=O)[C@H](CCCCN)NC(=O)[C@H](Cc1c[nH]cn1)NC(=O)[C@@H](C)NC(=O)[C@H](CC(C)C)NC(=O)[C@H](CCCNC(=N)N)NC(=O)[C@@H]1CCCN1C(=O)[C@H](CCCNC(=N)N)NC(=O)[C@@H]1CCC(=O)N1)C(=O)N[C@H](C)C(=O)N[C@H](Cc1ccccc1)C(N)=O` [Example 33, pE-R-P-R-L-a-H-K-G-P-nle-a-f-NH2], the concentration for a half-maximal effect (EC50) at hAPJ (setting [2]) came out at 14.8 nM. Moreover, in data set [1] (setting [3]), the half-life was above 16.7 h.

For the molecule `CCCC[C@@H](NC(=O)[C@@H]1CCCN1C(=O)CNC(=O)[C@H](CCCCN)NC(=O)[C@@H](Cc1c[nH]cn1)NC(=O)[C@H](C)NC(=O)[C@H](CC(C)C)NC(=O)[C@H](CCCNC(=N)N)NC(=O)[C@@H]1CCCN1C(=O)[C@H](CCCNC(=N)N)NC(=O)[C@@H]1CCC(=O)N1)C(=O)N[C@H](C)C(=O)N[C@H](Cc1ccccc1)C(=O)O` [Example 58, pE-R-P-R-L-A-h-K-G-P-nle-a-f-OH], the 50% effective concentration (EC50) at hAPJ (setting [2]) came to 55.1 nM. The same molecule had a half-life in data set [1] (setting [3]) of 3.8 h.

Consider `CCCC[C@@H](NC(=O)[C@@H]1CCCN1C(=O)CNC(=O)[C@H](CCCCN)NC(=O)[C@H](Cc1c[nH]cn1)NC(=O)[C@@H](C)NC(=O)[C@H](CC(C)C)NC(=O)[C@H](CCCNC(=N)N)NC(=O)[C@@H]1CCCN1C(=O)[C@@H](N)CCCNC(=N)N)C(=O)N[C@H](Cc1ccccc1)C(=O)O` [Example 50, H-R-P-R-L-a-H-K-G-P-nle-f-OH] (H-RPRL[dA]HKGP[dNle][dF]-OH), for which, at hAPJ (setting [2]), the EC50 was determined as 1.4 nM. In data set [1] (setting [3]), this molecule had a half-life of 0.183 h.

With `CCC[C@@H](NC(=O)[C@@H]1CCCN1C(=O)CNC(=O)[C@H](CCCCN)NC(=O)[C@H](Cc1c[nH]cn1)NC(=O)[C@@H](C)NC(=O)[C@H](CC(C)C)NC(=O)[C@H](CCCNC(=N)N)NC(=O)[C@@H]1CCCN1C(=O)[C@H](CCCNC(=N)N)NC(=O)[C@@H]1CCC(=O)N1)C(=O)N[C@H](C)C(=O)N[C@H](Cc1ccccc1)C(=O)O` [Example 53, pE-R-P-R-L-a-H-K-G-P-nva-a-f-OH] ([pGlu]RPRL[dA]HKGP[dNva][dA][dF]-OH), at hAPJ (setting [2]), the EC50 was found to be 8.7 nM. Moreover, the half-life in data set [1] (setting [3]) is above 16.7 h.

With `CCCC[C@@H](NC(=O)[C@@H]1CCCN1C(=O)CNC(=O)[C@H](CCCCN)NC(=O)C(C)(C)NC(=O)[C@H](CO)NC(=O)[C@H](CC(C)C)NC(=O)[C@H](CCCNC(=N)N)NC(=O)[C@@H]1CCCN1C(=O)[C@H](CCCNC(=N)N)NC(=O)[C@@H]1CCC(=O)N1)C(=O)N[C@H](C)C(=O)N[C@@H](Cc1ccccc1)C(=O)O` [Example 37, pE-R-P-R-L-S-Aib-K-G-P-nle-a-F-OH] ([pGlu]RPRLS[Aib]KGP[dNle][dA]F-OH), the EC50 at hAPJ (setting [2]) was found to be 3.9 nM. In addition, the half-life in data set [1] (setting [3]) is 8.72 h.

As to `CCCC[C@@H](NC(=O)[C@@H]1CCCN1C(=O)CNC(=O)[C@@H](CCCCN)NC(=O)C(C)(C)NC(=O)[C@H](CO)NC(=O)[C@H](CC(C)C)NC(=O)[C@H](CCCNC(=N)N)NC(=O)[C@@H]1CCCN1C(=O)[C@H](CCCNC(=N)N)NC(=O)[C@@H]1CCC(=O)N1)C(=O)N[C@H](C)C(=O)N[C@H](Cc1ccccc1)C(=O)O` [Example 5, pE-R-P-R-L-S-Aib-k-G-P-nle-a-f-OH] ([pGlu]RPRLS[Aib][dK]GP[dNle][dA][dF]-OH), the EC50 at hAPJ (setting [2]) stood at 79.9 nM. The molecule also displayed a half-life in data set [1] (setting [3]) above 16.7 h.

Consider `CCCC[C@H](NC(=O)[C@@H]1CCCN1C(=O)CNC(=O)[C@H](CCCCN)NC(=O)C(C)(C)NC(=O)[C@H](CO)NC(=O)[C@H](CC(C)C)NC(=O)[C@H](CCCNC(=N)N)NC(=O)[C@@H]1CCCN1C(=O)[C@H](CCCNC(=N)N)NC(=O)[C@@H]1CCC(=O)N1)C(=O)N[C@H](C)C(=O)N[C@@H](Cc1ccccc1)C(=O)O` [Example 42, pE-R-P-R-L-S-Aib-K-G-P-Nle-a-F-OH] ([pGlu]RPRLS[Aib]KGP[Nle][dA]F-OH), for which the concentration giving a half-maximal response (EC50) at hAPJ (setting [2]) is 2.4 nM. The molecule also had a half-life in data set [1] (setting [3]) above 16.7 h.

Take `CCCC[C@@H](NC(=O)[C@@H]1CCCN1C(=O)CNC(=O)[C@H](CCCCN)NC(=O)[C@@H](Cc1ccccc1)NC(=O)[C@@H](C)NC(=O)[C@H](CC(C)C)NC(=O)[C@H](CCCNC(=N)N)NC(=O)[C@@H]1CCCN1C(=O)[C@H](CCCNC(=N)N)NC(=O)[C@@H]1CCC(=O)N1)C(=O)N[C@H](C)C(=O)N[C@H](Cc1ccccc1)C(=O)O` [Example 46, pE-R-P-R-L-a-f-K-G-P-nle-a-f-OH] ([pGlu]RPRL[dA][dF]KGP[dNle][dA][dF]-OH): the EC50 at hAPJ (setting [2]) was found to be 9.2 nM. Also, the half-life in data set [1] (setting [3]) worked out at 8.87 h.

Consider `CCCC[C@@H](NC(=O)[C@@H]1CCCN1C(=O)CNC(=O)[C@H](CCCCN)NC(=O)[C@H](Cc1c[nH]cn1)NC(=O)[C@@H](C)NC(=O)[C@H](Cc1ccc(OCc2ccccc2)cc1)NC(=O)[C@H](CCCNC(=N)N)NC(=O)[C@@H]1CCCN1C(=O)[C@H](CCCNC(=N)N)NC(=O)[C@@H]1CCC(=O)N1)C(=O)N[C@H](C)C(=O)N[C@H](Cc1ccccc1)C(=O)O` [Example 27, pE-R-P-R-Y(Bzl)-a-H-K-G-P-nle-a-f-OH] ([pGlu]RPRY(Bn)[dA]HKGP[dNle][dA][dF]-OH), for which the concentration giving a half-maximal response (EC50) at hAPJ came to 121 nM. For the same molecule, in data set [1] (read-out: Surrogate activity-based Plasma stability t½), the half-life came out at 5.81 h.

The values are drawn from patent US8921307B2, “Synthetic linear apelin mimetics for the treatment of heart failure” (priority 2012, dated 2014).
